The values below come from US8969345B2, “Dibenzooxepin derivative” (Kyowa Hakko Kirin Co., Ltd., priority 2011, dated 2015).

pEC50: −log10 of the molar value.

Series [1] concerns the target T1, GAL4-PPAR γ chimeric nuclear receptor (human PPAR γ ligand binding domain) (Homo sapiens, UniProt P37231).
T1 construct: expressed in transfected cells; host or cells: HEK293EBNA cells, transient transfection with SuperFect
T1 sequence (P37231 174-475 isoform P37231-2): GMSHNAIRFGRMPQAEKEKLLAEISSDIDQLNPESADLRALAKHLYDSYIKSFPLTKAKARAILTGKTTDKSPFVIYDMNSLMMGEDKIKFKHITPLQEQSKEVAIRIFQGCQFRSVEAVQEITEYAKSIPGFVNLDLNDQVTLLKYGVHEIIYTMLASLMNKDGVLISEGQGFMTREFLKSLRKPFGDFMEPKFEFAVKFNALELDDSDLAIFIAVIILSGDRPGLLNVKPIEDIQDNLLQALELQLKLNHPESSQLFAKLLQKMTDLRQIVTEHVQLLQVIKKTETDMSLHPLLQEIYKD
In words: PPAR γ transactivation assay by transient gene transfer (GAL4-PPAR γ chimeric receptor, luciferase reporter, HEK293EBNA cells). Particulars: concentration showing 50% of efficacy (maximum activity rate relative to pioglitazone = 100%), 24 hr. The format is cell-based. As to the method:
The agonist activity of the test compound to PPAR γ was determined by a transactivation assay method using a chimeric nuclear receptor of a DNA binding region of a yeast transcription factor GAL4 and a PPAR γ ligand binding region. Specifically, the PPAR γ agonist activity of the test compound was evaluated by the following method based on the method of Lehmann et al. (J Biol. Chem., 1995, vol. 270, page 12953).
HEK293EBNA cells cultured in Dulbecco's Modified Eagle medium (Invitrogen) containing 10 v/v % fetal bovine serum (Invitrogen) were used. 30 mL of the above-mentioned cells (density: 1×10^5 cells/mL) were inoculated in a […] (Iwaki Glass), and cultured overnight. Using SuperFect Transfection Reagent (QIAGEN), a plasmid expressing a GAL4-PPAR γ chimeric nuclear receptor fusing 174-475 amino acids, which are human PPAR γ ligand binding domain, and 1-147 amino acids, which are GAL4 DNA binding domain, and a reporter plasmid expressing a GAL4 responsive luciferase were transiently introduced into the cells at a proportion of 4:1. After 5 hr from transfection, the cells were detached from the culture dish, and the detached cells (density: 2×10^4 cells/mL) were inoculated by 100 μL in each well of a 96 well white plate (SUMITOMO BAKELITE), and cultured overnight. The medium was removed, the test compound diluted in various concentrations with serum-free Dulbecco's Modified Eagle medium was added by 100 μL, and the mixture was reacted under a 5% carbon dioxide gas stream (5% CO2) at 37° C. for 24 hr. On the other hand, as a positive control, 10 μmol/L of pioglitazone (100 μL) was added, and the mixture was reacted under a 5% carbon dioxide gas stream (5% CO2) at 37° C. for 24 hr. As a substrate of luciferase, 100 μL of Steady-Glo (Promega) was added to each well and the mixture was thoroughly stirred. Immediately thereafter, the chemical luminescence due to luciferase was measured using TopCount NTX (Packard).
The agonist activity (activity rate (%)) of the test compound to PPAR γ was calculated according to the following formula, as a relative activity when the agonist activity on addition of pioglitazone ([…]) was 100%.

Series [2] in a line: Metabolic stability evaluation in human liver microsome. In kind it is in vitro ADME. Particulars: liver microsomes, pH 7.4; human liver microsome 0.2 mg/mL protein, test compound 1 μmol/L, β-NADPH, 37° C., 30 min; average of two samples; read-out: hCLint (converted). As to the method:
Human liver microsome (pool of 50 donors) was purchased from XenoTech. A reaction mixture containing phosphate buffer (100 mmol/L, pH 7.4), ethylenediamine tetraacetic acid (0.1 mmol/L), magnesium chloride (6 mmol/L), human liver microsome (0.2 mg/mL protein) and test compound (1 μmol/L) was prepared. The reaction mixture was preincubated at 37° C. for 5 min, β-NADPH (1 mmol/L) was added and the mixture was incubated at 37° C. for 30 min. The protein was removed with acetonitrile from the sample after the reaction and the sample was measured by LC-MS/MS. The ratio of the organic solvent in the reaction mixture was set to about 0.5%, and the reaction was performed in 2 samples.
The elimination rate constant (ke) was calculated from the linear regression of the logarithm plot of the residual ratio of the test compound and at 30 min after the reaction, and the liver inherent clearance (Cint) was calculated by the following formula.
[formula] ke: elimination rate constant (1/h) a: concentration (mg/mL) of liver microsome in the reaction mixture b: liver microsome amount per liver unit weight (32.3 mg/g liver) c: liver weight per unit body weight (25.7 g liver/kg body weight) Each test compound was tested in two samples, and the average thereof was calculated.

For the compound `C/C(=C1/c2ccc(Cc3c(C#N)nc4cc(F)ccn34)cc2COc2cc(F)ccc21)c1noc(=O)[nH]1` [Compound 14i, (E)-3-(1-{8-[(2-cyano-7-fluoroimidazo[1,2-a]pyridin-3-yl)methyl]-3-fluorodibenzo[b,e]oxepin-11(6H)-ylidene}ethyl)-1,2,4-oxadiazol-5(4H)-one], in series [1], the negative-log EC50 (pEC50) is 6.62. The CLint scaled at 1 μmol/L in series [2] is 127 mL/min/kg.
For the compound `C/C(=C1/c2ccc(Cc3c(C4CCOC4)nc4cc(F)ccn34)cc2COc2cc(F)ccc21)c1noc(=O)[nH]1` (stereo not shown) [Compound 14j, (E)-3-(1-{8-[(7-fluoro-2-(tetrahydrofuran-3-yl)imidazo[1,2-a]pyridin-3-yl)methyl]-3-fluorodibenzo[b,e]oxepin-11(6H)-ylidene}ethyl)-1,2,4-oxadiazol-5(4H)-one], in series [1], the pEC50 was 7.08. In series [2], the CLint scaled at 1 μmol/L is 11.3 mL/min/kg.
